Patent US20230129359A1, “MUSCARINIC RECEPTOR 4 ANTAGONISTS AND METHODS OF USE” (Neurocrine Biosciences, Inc., priority 2020, published 2023)

Key:
human M4 receptor = biological target: T1, human M4 receptor (Homo sapiens, UniProt P08173); assay: Radioligand ([3H]N-methylscopolamine) binding assay, membranes from CHO cells expressing human M4 receptor; settings: Ki against human M4 receptor; membranes from CHO cells; tritiated N-methylscopolamine 1.5 nM; read-out: K
T1 construct: expressed in transfected cells; host or cells: CHO cells
T1 sequence (P08173 1-479): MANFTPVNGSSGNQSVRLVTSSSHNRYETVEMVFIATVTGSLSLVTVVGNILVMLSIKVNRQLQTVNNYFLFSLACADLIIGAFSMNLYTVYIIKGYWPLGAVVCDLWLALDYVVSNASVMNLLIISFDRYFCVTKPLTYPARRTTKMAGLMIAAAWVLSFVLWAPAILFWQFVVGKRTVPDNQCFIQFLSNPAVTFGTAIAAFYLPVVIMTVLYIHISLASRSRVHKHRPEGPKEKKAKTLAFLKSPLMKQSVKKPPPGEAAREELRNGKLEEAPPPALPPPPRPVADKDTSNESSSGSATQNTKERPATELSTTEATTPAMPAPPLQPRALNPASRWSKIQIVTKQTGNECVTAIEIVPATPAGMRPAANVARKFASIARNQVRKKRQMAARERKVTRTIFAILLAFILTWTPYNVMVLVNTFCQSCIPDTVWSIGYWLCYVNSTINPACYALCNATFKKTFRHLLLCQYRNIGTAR
How it was run: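 Ki values derive from displacement of tritiated N-methylscopolamine (1.5 nM) from human M4 receptor in CHO membranes. Membranes, radioligand and twelve-point compound series were incubated together at 37 °C for 90 minutes in pH 7.4 HEPES/NaCl/MgCl2/EDTA buffer. Rapid vacuum filtration over polyethylenimine-pretreated filters was followed by radioactivity counting.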

[1] = biological target: T2, Human muscarinic 4 receptor (CHRM4) (Homo sapiens, UniProt P08173); assay: Fluorescence-based functional calcium assay, antagonism of acetylcholine response in CHO-K1 cells with Gα16; type: cell-based; settings: inhibition of the acetylcholine response
T2 construct: host or cells: CHO-K1
T2 sequence (P08173 1-479): T1 sequence (P08173 1-479)
Experimental: Functional antagonism of acetylcholine responses was evaluated using a fluorescence-based functional calcium assay. Acetylcholine binding to the muscarinic receptors activates G-proteins. Human muscarinic 4 receptor (CHRM4) was stably expressed in CHO-K1 cells and a promiscuous Gα16 construct is co-transfected. This cell line was commercially available through PerkinElmer (product number ES-213-A). Following ligand binding, activation of the Ga16 subunit induces the release of calcium from the endoplasmic reticulum. Prior to ligand screening, the receptor-expressing cells were loaded with a fluorescent calcium indicator, FLIPR Calcium 6 (Molecular Devices). Antagonist activity of the compounds was determined as the EC50 for inhibition of the acetylcholine response. The assay buffer used was a 1:1 solution of buffer (1× Hank's balanced salt solution plus 20 mM HEPES buffer, pH 7.4) and cell medium (Ham's F-12, 10% FBS, 0.4 mg/mL Geneticin, 0.25 mg/mL Zeocin). The day before the assay, 4×10^3 cells per well were seeded into an assay plate in 25 μL of medium and allowed to incubate overnight at 37° C. and 5% CO2. The following day, 25 μL of Calcium 6 dye was added to each well and incubated for two additional hours at 37° C. and 5% CO2. The test compound (a dose-response of eleven concentrations ranging from […]) was added to the cells to a final DMSO concentration of 0.56% v/v. One hour later, acetylcholine to a final concentration of 100 nM was added by the instrument and calcium flux-dependent fluorescence measured in real time. The concentration of acetylcholine used was that which stimulates 80% of the maximal response.

SMILES | Ki (human M4 receptor) [nM] | IC50 [1] [nM]
C[C@@H]1CN(c2cnc(C(F)(F)F)cn2)C[C@H](C)N1C(=O)OC1CC2(C1)CN(Cc1ccccc1)C2 [Compound 141, 2-benzyl-2-azaspiro[3.3]heptan-6-yl (2R,6S)-2,6-dimethyl-4-[5-(trifluoromethyl)pyrazin-2-yl]piperazine-1-carboxylate] | 10 to 100 | < 10
C[C@@H]1CN(c2ncc(C(F)(F)F)cn2)C[C@H](C)N1C(=O)OC1CC2(C1)CN(Cc1ccccc1)C2 [Compound 147, 2-Benzyl-2-azaspiro[3.3]heptan-6-yl (2R,6S)-2,6-dimethyl-4-[5-(trifluoromethyl)pyrimidin-2-yl]piperazine-1-carboxylate] | < 10 | < 10
C[C@@H]1CN(c2ncc(C(F)(F)F)cn2)C[C@H](C)N1C(=O)NC1CC2(C1)CN(Cc1ccccc1)C2 [Compound 96, (2R,6S)—N-{2-Benzyl-2-azaspiro[3.3]heptan-6-yl}-2,6-dimethyl-4-[5-(trifluoromethyl)pyrimidin-2-yl]piperazine-1-carboxamide] | < 10 | < 10
C[C@@H]1CN(c2cnc(C(F)(F)F)cn2)[C@@H](C)CN1C(=O)OC1CC2(C1)CN(Cc1ccccc1)C2 [Compound 106, 2-benzyl-2-azaspiro[3.3]heptan-6-yl (2R,5S)-2,5-dimethyl-4-[5-(trifluoromethyl)pyrazin-2-yl]piperazine-1-carboxylate] | 10 to 100 | < 10
C[C@@H]1CN(c2ncc(C(F)(F)F)cn2)C[C@H](C)N1C(=O)OC1(C)CC2(CN(Cc3ccccc3)C2)C1 [Compound 352, 2-benzyl-6-methyl-2-azaspiro[3.3]heptan-6-yl (2R,6S)-2,6-dimethyl-4-[5-(trifluoromethyl)pyrimidin-2-yl]piperazine-1-carboxylate] | 100 to 1000 | 
C[C@@H]1CN(c2cnc(C(F)(F)F)cn2)[C@@H](C)CN1C(=O)OC1CC2(C1)CN(Cc1ccc(S(C)(=O)=O)cc1)C2 [Compound 503, 2-[(4-methanesulfonylphenyl)methyl]-2-azaspiro[3.3]heptan-6-yl (2R,5S)-2,5-dimethyl-4-[5-(trifluoromethyl)pyrazin-2-yl]piperazine-1-carboxylate] | 100 to 1000 | 
[2H]c1c([2H])c([2H])c(C([2H])([2H])N2CC3(CC(OC(=O)N4C[C@H](C)N(c5cnc(C(F)(F)F)cn5)C[C@H]4C)C3)C2)c([2H])c1[2H] [Compound 361, 2-[(^2H5)phenyl(^2H2)methyl]-2-azaspiro[3.3]heptan-6-yl (2R,5S)-2,5-dimethyl-4-[5-(trifluoromethyl)pyrazin-2-yl]piperazine-1-carboxylate] | 10 to 100 | 
